Reference: patent US20140288074A1, “FUNGICIDAL PYRAZOLES” (E I DU PONT DE NEMOURS AND COMPANY, priority 2013, published 2014)

Columns and labels:
Assay type in all cases: in vivo
Botrytis cinerea = assay: Test A: preventive spray on tomato seedlings, tomato Botrytis, visual disease rating; conditions: 200 ppm test suspension, Botrytis cinerea inoculated the day after spraying
Protocol: General protocol for preparing test suspensions for Tests A-G: the test compounds were first dissolved in acetone in an amount equal to 3% of the final volume and then suspended at the desired concentration (in ppm) in acetone and purified water (50/50 mix by volume) containing 250 ppm of the surfactant Trem® 014 (polyhydric alcohol esters). The resulting test suspensions were then used in Tests A-G. Each test was conducted in triplicate, and the results were averaged. Spraying a 200 ppm test suspension to the point of run-off on the test plants was the equivalent of a rate of 800 g/ha. Unless otherwise indicated, the rating values indicate a 200 ppm test suspension was used. (An asterisk “*” next to the rating value indicates a 40 ppm test suspension was used.) The test suspension was sprayed to the point of run-off on tomato seedlings. The following day the seedlings were inoculated with a spore suspension of Botrytis cinerea (the causal agent of tomato Botrytis) and incubated in saturated atmosphere at 20° C. for 48 h, and then moved to a growth chamber at 24° C. for 3 additional days, after which time visual disease ratings were made. Results for Tests A-G are given in Table A. In the Table, a rating of 100 indicates 100% disease control and a rating of 0 indicates no disease control (relative to the controls). A hyphen (-) indicates no test results.

Alternaria solani = assay: Test B: preventive spray on tomato seedlings, tomato early blight, visual disease rating; conditions: 200 ppm test suspension, Alternaria solani inoculated the day after spraying
Protocol: General protocol for preparing test suspensions for Tests A-G: the test compounds were first dissolved in acetone in an amount equal to 3% of the final volume and then suspended at the desired concentration (in ppm) in acetone and purified water (50/50 mix by volume) containing 250 ppm of the surfactant Trem® 014 (polyhydric alcohol esters). The resulting test suspensions were then used in Tests A-G. Each test was conducted in triplicate, and the results were averaged. Spraying a 200 ppm test suspension to the point of run-off on the test plants was the equivalent of a rate of 800 g/ha. Unless otherwise indicated, the rating values indicate a 200 ppm test suspension was used. (An asterisk “*” next to the rating value indicates a 40 ppm test suspension was used.) The test suspension was sprayed to the point of run-off on tomato seedlings. The following day the seedlings were inoculated with a spore suspension of Alternaria solani (the causal agent of tomato early blight) and incubated in a saturated atmosphere at 27° C. for 48 h, and then moved to a growth chamber at 20° C. for 5 days, after which time visual disease ratings were made. Results for Tests A-G are given in Table A. In the Table, a rating of 100 indicates 100% disease control and a rating of 0 indicates no disease control (relative to the controls). A hyphen (-) indicates no test results.

Septoria nodorum = assay: Test C: preventive spray on wheat seedlings, Septoria glume blotch, visual disease rating; conditions: 200 ppm test suspension, Septoria nodorum inoculated the day after spraying
Protocol: General protocol for preparing test suspensions for Tests A-G: the test compounds were first dissolved in acetone in an amount equal to 3% of the final volume and then suspended at the desired concentration (in ppm) in acetone and purified water (50/50 mix by volume) containing 250 ppm of the surfactant Trem® 014 (polyhydric alcohol esters). The resulting test suspensions were then used in Tests A-G. Each test was conducted in triplicate, and the results were averaged. Spraying a 200 ppm test suspension to the point of run-off on the test plants was the equivalent of a rate of 800 g/ha. Unless otherwise indicated, the rating values indicate a 200 ppm test suspension was used. (An asterisk “*” next to the rating value indicates a 40 ppm test suspension was used.) The test suspension was sprayed to the point of run-off on wheat seedlings. The following day the seedlings were inoculated with a spore suspension of Septoria nodorum (the causal agent of Septoria glume blotch) and incubated in a saturated atmosphere at 24° C. for 48 h, and then moved to a growth chamber at 20° C. for 9 days, after which time visual disease ratings were made. Results for Tests A-G are given in Table A. In the Table, a rating of 100 indicates 100% disease control and a rating of 0 indicates no disease control (relative to the controls). A hyphen (-) indicates no test results.

Septoria tritici = assay: Test D: preventive spray on wheat seedlings, wheat leaf blotch, visual disease rating; conditions: 200 ppm test suspension, Septoria tritici inoculated the day after spraying
Protocol: General protocol for preparing test suspensions for Tests A-G: the test compounds were first dissolved in acetone in an amount equal to 3% of the final volume and then suspended at the desired concentration (in ppm) in acetone and purified water (50/50 mix by volume) containing 250 ppm of the surfactant Trem® 014 (polyhydric alcohol esters). The resulting test suspensions were then used in Tests A-G. Each test was conducted in triplicate, and the results were averaged. Spraying a 200 ppm test suspension to the point of run-off on the test plants was the equivalent of a rate of 800 g/ha. Unless otherwise indicated, the rating values indicate a 200 ppm test suspension was used. (An asterisk “*” next to the rating value indicates a 40 ppm test suspension was used.) The test suspension was sprayed to the point of run-off on wheat seedlings. The following day the seedlings were inoculated with a spore suspension of Septoria tritici (the causal agent of wheat leaf blotch) and incubated in saturated atmosphere at 24° C. for 48 h. and then the seedlings were moved to a growth chamber at 20° C. for 19 additional days, after which time visual disease ratings were made. Results for Tests A-G are given in Table A. In the Table, a rating of 100 indicates 100% disease control and a rating of 0 indicates no disease control (relative to the controls). A hyphen (-) indicates no test results.

[1] = tested on: Puccinia recondita f. sp. tritici; assay: Test F: preventive spray on wheat seedlings, wheat leaf rust, visual disease rating; conditions: 200 ppm test suspension, Puccinia recondita f. sp. tritici inoculated the day after spraying
Protocol: General protocol for preparing test suspensions for Tests A-G: the test compounds were first dissolved in acetone in an amount equal to 3% of the final volume and then suspended at the desired concentration (in ppm) in acetone and purified water (50/50 mix by volume) containing 250 ppm of the surfactant Trem® 014 (polyhydric alcohol esters). The resulting test suspensions were then used in Tests A-G. Each test was conducted in triplicate, and the results were averaged. Spraying a 200 ppm test suspension to the point of run-off on the test plants was the equivalent of a rate of 800 g/ha. Unless otherwise indicated, the rating values indicate a 200 ppm test suspension was used. (An asterisk “*” next to the rating value indicates a 40 ppm test suspension was used.) The test suspension was sprayed to the point of run-off on wheat seedlings. The following day the seedlings were inoculated with a spore suspension of Puccinia recondita f. sp. tritici (the causal agent of wheat leaf rust) and incubated in a saturated atmosphere at 20° C. for 24 h, and then moved to a growth chamber at 20° C. for 6 days, after which time visual disease ratings were made. Results for Tests A-G are given in Table A. In the Table, a rating of 100 indicates 100% disease control and a rating of 0 indicates no disease control (relative to the controls). A hyphen (-) indicates no test results.

[2] = tested on: Blumeria graminis f. sp. tritici; assay: Test G: preventive spray on wheat seedlings, wheat powdery mildew, visual disease rating;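 also: rated 8 days after spore dust inoculation at 20 °C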; conditions: 200 ppm test suspension, Blumeria graminis f. sp. tritici inoculated the day after spraying
Protocol: General protocol for preparing test suspensions for Tests A-G: the test compounds were first dissolved in acetone in an amount equal to 3% of the final volume and then suspended at the desired concentration (in ppm) in acetone and purified water (50/50 mix by volume) containing 250 ppm of the surfactant Trem® 014 (polyhydric alcohol esters). The resulting test suspensions were then used in Tests A-G. Each test was conducted in triplicate, and the results were averaged. Spraying a 200 ppm test suspension to the point of run-off on the test plants was the equivalent of a rate of 800 g/ha. Unless otherwise indicated, the rating values indicate a 200 ppm test suspension was used. (An asterisk “*” next to the rating value indicates a 40 ppm test suspension was used.) The test suspension was sprayed to the point of run-off on wheat seedlings. The following day the seedlings were inoculated with a spore dust of Blumeria graminis f. sp. tritici (also known as Erysiphe graminis f. sp. tritici, the causal agent of wheat powdery mildew) and incubated in a growth chamber at 20° C. for 8 days, after which time visual disease ratings were made. Results for Tests A-G are given in Table A. In the Table, a rating of 100 indicates 100% disease control and a rating of 0 indicates no disease control (relative to the controls). A hyphen (-) indicates no test results.

SMILES	Test A rating (disease control) (Botrytis cinerea) [%]	Test B rating (disease control) (Alternaria solani) [%]	Test C rating (disease control) (Septoria nodorum) [%]	Test D rating (disease control) (Septoria tritici) [%]	Test F rating (disease control) [1] [%]	Test G rating (disease control) [2] [%]	pest or weed control at 200 ppm (Botrytis cinerea; 120 h) [%]	pest or weed control at 200 ppm (Septoria nodorum; Parastagonospora nodorum, 264 h) [%]	pest or weed control at 200 ppm (Septoria tritici; Zymoseptoria tritici, 504 h) [%]	pest or weed control at 200 ppm ([1]; 168 h) [%]	pest or weed control at 200 ppm ([2]; 192 h) [%]
Cc1nn(C)c(NC(C)C)c1-c1ccc(F)cc1F [Compound 1]	65	0	0	0	0	0					
CCCCNc1c(-c2ccc(F)cc2Br)c(C)nn1C [Compound 36]	67		100	50	100	0					
CCCCN(CCCC)c1c(-c2ccc(F)cc2Br)c(C)nn1C [Compound 37]	0		99	0	99	0					
Cc1nn(C)c(NC(C)C)c1-c1ccc(F)cc1Br [Compound 38]	100		100	46	100	0					
CCN(CC)c1c(-c2ccc(F)cc2Br)c(C)nn1C [Compound 39]	0		64	0	68	0					
Cc1nn(C)c(N2CCOCC2)c1-c1ccc(F)cc1Cl [Compound 40, 4-[4-(2-chloro-4-fluorophenyl)-1,3-dimethyl-1H-pyrazol-5-yl]morpholine]							100	0	100	99	94
Cc1nn(C)c(N2CCCCC2)c1-c1ccc(F)cc1Cl [Compound 41]	99		0	88	44	0					
Cc1nn(C)c(N2CCCCC2C)c1-c1ccc(F)cc1Cl (stereo not drawn) [Compound 43]	73		0	36	19	43					
Cc1nn(C)c(NCC(C)C)c1-c1ccc(F)cc1Br [Compound 44]	0		59	0	90	0					
COCCNc1c(-c2ccc(F)cc2Br)c(C)nn1C [Compound 45]	9		77	0	68	0					
COCCN(CCOC)c1c(-c2ccc(F)cc2Br)c(C)nn1C [Compound 46]	0		86	0	68	13					
CCCCNc1c(-c2c(F)cc(F)cc2F)c(C)nn1C [Compound 47]	30		95	57	98	0					
Cc1nn(C)c(NCC2CC2)c1-c1ccc(F)cc1Br [Compound 48]	98		68	71	89	0					
Cc1nn(C)c(NC(C)C)c1-c1c(F)cc(F)cc1F [Compound 49]	40		98	0	98	0					
CCN(CC)c1c(-c2c(F)cc(F)cc2F)c(C)nn1C [Compound 50]	38		0	0	74	0					
COCCNc1c(-c2c(F)cc(F)cc2F)c(C)nn1C [Compound 54]	0		97	92	95	0					
